Source: patent publication US20080039527A1, “Calixarenes as Inhibitors of Protein Kinase B” (Imperial College Innovations Ltd., priority 2003, published 2008)
Where two headings read alike, the source gives them in different places.

Columns and labels:
[1] = tested on: PKB Ser473 phosphorylation; experiment: PKB Ser473 activation synergy experiments (Western blot, NIH3T3 cells primed with NCS); format: cell-based; details: for phosphorylation of PKB (Western blot 1, FIG. 1): NIH3T3 cells, 1% NCS 20 minutes then compound 15 minutes
Description: PKB is a protein downsteam effector of PI3K, and becomes phosphorylated on (residues required for its activity) in response to the activation of PI3K. Natal Calf Serum (NCS) is a stimulator of PI3K and thus subsequently results in PKB activation. Therefore the positive control used in experiments is 10% serum and a negative control used is provided with no serum at all.
Compound 48/80 is the condensation product of N-methyl-p-methoxyphenethylamine and formaldehyde and is a mixture of cationic amphiphiles of varying degrees of polymerisation.
In a typical method, NIH3T3 cells were grown in media (GibcoBRL) containing 10% NCS to near confluency in six well plates. The cells were starved using 0.5% serum for 2-3 days. The media was then removed and replaced with serum free media for 15 minutes. Subsequently, 1% NCS was added to reaction wells, and 0%, 1% and 10% NCS to control wells. After 20 minutes incubation, then compound was added, and the wells incubated for a further 15 minutes. Media was removed and sample buffer was added and the cells lysed, boiled, centrifuged.
Samples were subjected to gel electrophoresis by 10% SDS-PAGE and then Western blotted on to PVDF membrane (Biorad) according to standard protocols. Western blots were probed using primary antibodies against PKB purchased from New England Biolabs and secondary antibodies of goat anti-rabbit IgG coupled to horseradish peroxidase (Amersham). The membranes were then developed using a freshly prepared ECL solution according to standard protocols.

[2] = Dilution of compounds into water (observed solubility)
Description: The monomer, dimer and trimer of compound 48/80 were received as synthesised from Macba Numbere at UCL.

[3] = diluted into water initially, afterwards into DMSO

Row | Compound | overall effect on PKB (conclusion from these studies) [1] | PKB Ser473 phosphorylation (Western blot 3) ([1]; 5 μg/mL experiment, controls contain DMSO at 2.5%) | solubility on dilution into water [2, 3] | phosphorylation of PKB (Western blot 1, FIG. 1) ([1]; 3 μg/mL) | phosphorylation of PKB (Western blot 1, FIG. 1) ([1]; 6 μg/mL) | solubility on dilution into water [2]
1 | CNCCc1ccc(OC)cc1 [monomer, N-methyl-p-methoxyphenethylamine] | activating species | slight activation above control levels | solubility problems | – | – | –
2 | CNCCc1ccc(OC)c(Cc2cc(CCNC)cc(Cc3cc(CCNC)ccc3OC)c2OC)c1.Cl.Cl.Cl [trimer] | inhibiting species | – | – | just below that of 1% serum activation | almost completely inhibited | solubility problems
3 | Benzeneethanamine-3,3′-methylenebis(4-methoxy-N-methyl) dihydrochloride [dimer] | – | – | solubility problems | – | – | –
